The values below come from US11370841B2, “Methods of treating fibroblast growth factor 19-mediated cancers and tumors” (NGM Biopharmaceuticals, Inc., priority 2016, dated 2022).

For data set [1], the system named is FGF19-mediated hepatocellular carcinoma. Nature of the data set: AAV-FGF19 tumorigenicity and metabolic study in Stat3f/f and Stat3ΔHep mice. As to conditions: for Reduction in hepatic mRNA levels of Cyp7a1 / Reduction in hepatic mRNA levels of Cyp8b: AAV-expressed FGF19, 12 months. As to the method:
Hepatocyte-specific Stat3 deletion. […] Stat3^f/f mice injected with AAV-TBG-Cre alone served as Stat3^ΔHep controls. Stat3^f/f mice were used as wild type controls. AAV-TBG-Cre drives Cre recombinase expression under TBG promoter, which allows hepatocyte-specific expression.
52 weeks after AAV injection, mice were euthanized and examined for liver tumor formation. The maximum diameter of liver tumor nodules in each mouse was measured with a caliper and total numbers of tumor nodules per liver were recorded. Livers were weighed and collected for histological examination or gene expression analysis.
Glucose and body composition. Blood concentrations of ad libitum fed glucose were measured in conscious animals from a hand-held glucometer (Accu-check, Roche Diagnostics) using tail vein blood. Body weight and body composition (EcoMRI whole body composition analyzer) were measured at designated times. Mice were euthanized 52 weeks post-AAV administration. Macroscopic liver tumors were counted and the maximal diameter of the tumors recorded.
Gene expression analysis.
(§1) Blood parameters. Blood was collected from tail vein in un-anesthetized animals using microvette serum gel tubes (Sarstedt) for measurements of glucose, insulin, ALT, AST, ALP, bile acids, and FGF19 concentrations. Serum samples were prepared by centrifugation at 4° C. for 10 minutes at 6000 g after clotting at room temperature for 30 minutes. For HbA1c measurements, whole blood was collected after euthanasia by cardiac puncture into EDTA-tubes and quickly inverted multiple times. HbA1c (from whole blood samples) and liver enzyme (from serum samples) levels were measured on Cobas Integra 400 Clinical Analyzer (Roche Diagnostics). Serum FGF19 level was determined by FGF19 enzyme-linked immunosorbent assays (ELISA) (Biovendor). Serum insulin was assessed with ELISA kits from ALPCO. Concentrations of total bile acids in serum were determined using a 3β-hydroxysteroid dehydrogenase method (Diazyme). All assays were performed according to the manufacturers' instructions.
(§2) Histology and immunohistochemistry. Livers were fixed in 10% neutral-buffered formalin and embedded in paraffin. 5 μm sections were deparaffinized in xylenes, rehydrated sequentially in graded ethanol (100%, 95%, 80%, 70%, 50%, 2 minutes each). Hematoxylin and eosin staining was performed using standard methods. For immunohistochemical studies, liver sections were subjected to antigen retrieval in a citrate-based Antigen Unmasking Solution (Vector Laboratories), and incubated for 30 minutes with 3% H2O2 at room temperature to block endogenous peroxidase activity. Sections were stained with primary antibodies against glutamine synthetase (Thermo Fisher), BrdU, PCNA, or STAT3 in PBS containing 10% goat serum. Biotinylated secondary antibodies, ABC-HRP reagent (Vectastain ABC kit, #PK-6100, Vector Laboratories) and di-amine-benzidine (DAB) colorimetric peroxidase substrate (#SK-4100, Vector Laboratories) were used for detection. When indicated, sections were counterstained with hematoxylin. Digital imaging microscopy was performed using a Leica DM4000 microscope equipped with DFC500 camera and a scanning platform (Leica). Images for the entire liver section were acquired by stitching 70-96 fields together using Surveyor program for morphometric analysis. Glutamine synthetase-positive tumor areas were quantified using Measure/Count/Area tool from ImagePro software.

Another data set concerns FGF19-induced HCC. Briefly: Tumorigenicity study in IL-6-deficient mice. The data set is classed as in vivo. As to conditions: both Il6+/+ and Il6-/- mice, AAV-expressed FGF19. The procedure:
Histology and immunohistochemistry. […] Hematoxylin and eosin staining was performed using standard methods. […] When indicated, sections were counterstained with hematoxylin.
Tumorigenicity study in IL-6-deficient mice. Il6^−/− mice were backcrossed to C57BL/6 mice for at least nine generations. Age and gender-matched wild type C57BL6 mice were used as Il6^+/+ controls. […] Body weight, body composition, and blood glucose were measured at designated times. Mice were euthanized 52 weeks post-AAV administration for liver tumor assessment.

The subject of a further data set is FGF19-mediated HCC. Briefly: Tumorigenicity study in db/db mice (AAV-SOCS3, tofacitinib). The data set is classed as in vivo. As to the method: as §1, §2
Tumorigenicity study in db/db mice. 11 to 12 week old db/db mice received a single intravenous dose of AAV containing either FGF19 or a control gene (green fluorescent protein). Body weight and blood glucose were monitored. […] Mice were euthanized 24 weeks post-AAV administration and examined for liver tumor formation by gross appearance and histology.

Setting [2] is: Stat3f/f mice, AAV-expressed FGF19.

With “FGF19: Fibroblast growth factor 19, mature human 194 amino acid polypeptide (SEQ ID NO: 1); recombinant protein or AAV-expressed”, in data set [1] (setting [2]), the Body weight result is recorded as “weight-lowering” and the Glucose entry is on record as “glucose-lowering”. In data set [1] (Stat3f/f mice), the “Reduction in hepatic mRNA levels of Cyp7a1” value amounted to 77% and the “Reduction in hepatic mRNA levels of Cyp8b” value worked out at 95%. In addition, in data set [1] (Stat3ΔHep mice), the “Reduction in hepatic mRNA levels of Cyp7a1” value is on record as 87% and the “Reduction in hepatic mRNA levels of Cyp8b” value is recorded as 88%. The Body fat composition result in the data set on FGF19-induced HCC is “efficiently reduced”. Besides, the HbA1c result with FGF19-mediated HCC (AAV-expressed FGF19, in the absence or presence of SOCS3) was “normalized”. The Blood glucose levels entry in the data set on FGF19-mediated HCC (AAV-expressed FGF19, irrespective of tofacitinib treatment) was “normalized”.
